By IC50 is commonly meant the concentration that inhibits the measured activity by half.

We go through 22 compounds from US20150031668A1, “CHROMAN DERIVATIVES AS TRPM8 INHIBITORS” (AMGEN INC., priority 2013, published 2015).

Where a name gives a salt, the structure may show the parent alone.

The target in the experiment is T1, human TRPM8 (Homo sapiens, UniProt Q7Z2W7).
T1 construct: expressed in transfected cells; host or cells: Chinese hamster ovary (CHO) cells, T-REx tetracycline-inducible expression system (Invitrogen); co-transfected with pcDNA3.1 aequorin
T1 sequence (Q7Z2W7 whole entry): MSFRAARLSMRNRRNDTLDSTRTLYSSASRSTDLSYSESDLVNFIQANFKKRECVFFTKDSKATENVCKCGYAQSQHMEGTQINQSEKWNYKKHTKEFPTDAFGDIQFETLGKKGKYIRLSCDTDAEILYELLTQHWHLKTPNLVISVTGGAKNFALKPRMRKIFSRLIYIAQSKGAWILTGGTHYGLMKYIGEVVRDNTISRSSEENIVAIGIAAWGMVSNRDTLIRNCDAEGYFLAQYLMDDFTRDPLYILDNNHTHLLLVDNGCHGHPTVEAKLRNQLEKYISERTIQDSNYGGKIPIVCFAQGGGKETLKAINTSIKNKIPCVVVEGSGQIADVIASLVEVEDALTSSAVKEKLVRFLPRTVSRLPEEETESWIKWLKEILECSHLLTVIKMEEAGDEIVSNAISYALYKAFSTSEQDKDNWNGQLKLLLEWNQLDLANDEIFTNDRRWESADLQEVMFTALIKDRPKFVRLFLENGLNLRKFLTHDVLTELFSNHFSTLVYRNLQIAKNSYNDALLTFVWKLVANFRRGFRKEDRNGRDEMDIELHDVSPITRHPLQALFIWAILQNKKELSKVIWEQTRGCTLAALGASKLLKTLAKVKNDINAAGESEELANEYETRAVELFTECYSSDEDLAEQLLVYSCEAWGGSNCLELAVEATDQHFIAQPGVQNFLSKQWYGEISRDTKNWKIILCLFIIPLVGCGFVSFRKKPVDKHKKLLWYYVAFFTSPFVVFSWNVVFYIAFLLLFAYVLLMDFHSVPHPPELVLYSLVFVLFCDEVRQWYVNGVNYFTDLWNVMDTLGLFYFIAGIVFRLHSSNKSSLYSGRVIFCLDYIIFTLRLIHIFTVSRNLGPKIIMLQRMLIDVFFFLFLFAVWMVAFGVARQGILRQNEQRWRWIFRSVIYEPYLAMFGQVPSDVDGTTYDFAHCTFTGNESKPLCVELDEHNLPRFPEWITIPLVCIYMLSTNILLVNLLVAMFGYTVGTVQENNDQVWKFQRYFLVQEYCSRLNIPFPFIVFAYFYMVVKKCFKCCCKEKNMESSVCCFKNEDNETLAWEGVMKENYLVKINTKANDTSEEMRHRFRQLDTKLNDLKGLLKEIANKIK
Put plainly: Luminescence readout assay for measuring intracellular calcium (aequorin, CHO cells expressing human TRPM8; icilin, L-menthol or cold activation). The format is cell-based. Particulars: CHO cells expressing human TRPM8, icilin activation (1 μM), aequorin luminescence; read-out: hTRPM8 IC50. The gist of the method:
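Activation was by 1 μM icilin, 100 μM L-menthol (test compound 2.5 min ahead) or cold buffer below 10° C (compound 1 min ahead). Calcium rise measured as aequorin luminescence in CHO cells with tetracycline-inducible human TRPM8.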
Consider `O=C(NC1(c2ccc(Cl)c(Cl)c2)CCOc2cccnc21)c1ccc2[nH]c(=O)oc2c1` (stereo not shown) [Example 24, N-(4-(3,4-dichlorophenyl)-3,4-dihydro-2H-pyrano[3,2-b]pyridin-4-yl)-2-oxo-2,3-dihydrobenzo[d]oxazole-6-carboxamide], for which the IC50 is 23 nM. Next, `Cn1ccc2cc(C(=O)N[C@]3(c4ccc(OC(F)(F)F)cc4)CCOc4cccnc43)ccc21` [Example 258, (S)-1-methyl-N-(4-(4-(trifluoromethoxy)phenyl)-3,4-dihydro-2H-pyrano[3,2-b]pyridin-4-yl)-1H-indole-5-carboxamide formate]: 34 nM. For the compound `O=C(N[C@]1(c2ccc(OC(F)(F)F)c(F)c2)CCOc2cccnc21)c1ccc(C(O)C(F)(F)F)cc1` (mixture of isomers) [Example 159, N—((S)-4-(3-fluoro-4-(trifluoromethoxy)phenyl)-3,4-dihydro-2H-pyrano[3,2-b]pyridin-4-yl)-4-((R)-2,2,2-trifluoro-1-hydroxyethyl)benzamide and N—((S)-4-(3-fluoro-4-(trifluoromethoxy)phenyl)-3,4-dihydro-2H-pyrano[3,2-b]pyridin-4-yl)-4-((S)-2,2,2-trifluoro-1-hydroxyethyl)benzamide (1:1)], the IC50 is 46 nM.

In the case of `O=C(N[C@]1(c2ccc(OC(F)(F)F)c(F)c2)CCOc2cccnc21)c1cnsc1` [Example 190, (S)-N-(4-(3-fluoro-4-(trifluoromethoxy)phenyl)-3,4-dihydro-2H-pyrano[3,2-b]pyridin-4-yl) isothiazole-4-carboxamide], the IC50 stood at 152 nM. Then `O=C(O)c1ccc(S(=O)(=O)N[C@]2(c3ccc(OC(F)(F)F)c(F)c3)CCOc3cccnc32)cc1` [Example 317, (S)-4-(N-(4-(3-fluoro-4-(trifluoro-methoxy)phenyl)-3,4-dihydro-2H-pyrano[3,2-b]pyridin-4-yl)sulfamoyl) benzoic acid], with 3340 nM; and `COC(=O)c1ccnc(C(=O)N[C@]2(c3ccc(OC(F)(F)F)c(F)c3)CCOc3cccnc32)c1` [Example 201, (S)-methyl 2-((4-(3-fluoro-4-(trifluoromethoxy)phenyl)-3,4-dihydro-2H-pyrano[3,2-b]pyridin-4-yl)carbamoyl) isonicotinate], with 21 nM; and `O=C(N[C@]1(c2ccc(OC(F)(F)F)cc2)CCOc2cccnc21)c1ccns1` [Example 213, (S)-N-(4-(4-(trifluoromethoxy)phenyl)-3,4-dihydro-2H-pyrano[3,2-b]pyridin-4-yl)isothiazole-5-carboxamide formate], with 81 nM. Next, `Cc1nnc(-c2cccc(-c3ccc([C@@]4(NC(=O)c5ccc(F)cc5)CCOc5cccnc54)cc3)c2)o1` [Example 150, (S)-4-fluoro-N-(4-(3′-(5-methyl-1,3,4-oxadiazol-2-yl)-[1,1′-biphenyl]-4-yl)-3,4-dihydro-2H-pyrano[3,2-b]pyridin-4-yl)benzamide]: 1190 nM; `O=C(O)c1ccc(C(=O)N[C@]2(c3ccc(OC(F)(F)F)c(F)c3)CCOc3cccnc32)[nH]1` [Example 306, (S)-5-((4-(3-fluoro-4-(trifluoromethoxy)phenyl)-3,4-dihydro-2H-pyrano[3,2-b]pyridin-4-yl)carbamoyl)-1H-pyrrole-2-carboxylic acid]: 159 nM; `COC(=O)c1ccc(NC(=O)N[C@]2(c3ccc(OC(F)(F)F)c(F)c3)CCOc3cccnc32)nc1` [Example 84, (S)-methyl 6-(3-(4-(3-fluoro-4-(trifluoromethoxy)phenyl)-3,4-dihydro-2H-pyrano[3,2-b]pyridin-4-yl)ureido)nicotinate]: 266 nM.

On to `CCOC(=O)c1ccc(C(=O)N[C@]2(c3ccc(OC(F)(F)F)c(F)c3)CCOc3cccnc32)nc1C` [Example 169, (S)-ethyl 6-((4-(3-fluoro-4-(trifluoromethoxy)phenyl)-3,4-dihydro-2H-pyrano[3,2-b]pyridin-4-yl)carbamoyl)-2-methylnicotinate], for which the half-maximal inhibitory concentration (IC50) is 32 nM. Next, `O=C(NC1(c2ccc(OC(F)(F)F)cc2)CCOc2cccnc21)c1ccc(F)cc1` (stereo not shown) [Example 8, 4-fluoro-N-(4-(4-(trifluoromethoxy)phenyl)-3,4-dihydro-2H-pyrano[3,2-b]pyridin-4-yl)benzamide]: 75 nM. Next, `O=C(Nc1ccc(F)nc1)N[C@]1(c2ccc(OC(F)(F)F)c(F)c2)CCOc2cccnc21` [Example 66, (S)-1-(4-(3-fluoro-4-(trifluoromethoxy)phenyl)-3,4-dihydro-2H-pyrano[3,2-b]pyridin-4-yl)-3-(6-fluoropyridin-3-yl)urea 2,2,2-trifluoroacetate]: 17 nM; `O=C(N[C@]1(c2ccc(Cl)c(Cl)c2)CCOc2cccnc21)c1ccccc1` (single isomer, unassigned) [Example 3]: 25 nM; `COc1ncccc1-c1ccc([C@@]2(NC(=O)c3ccc(F)cc3)CCOc3cccnc32)cc1` [Example 131, (S)-4-fluoro-N-(4-(4-(2-methoxypyridin-3-yl)phenyl)-3,4-dihydro-2H-pyrano[3,2-b]pyridin-4-yl)benzamide]: 113 nM.

`O=C(N[C@]1(c2ccc(-c3cncnc3)cc2)CCOc2cccnc21)c1ccc(F)cc1` [Example 124, (S)-4-fluoro-N-(4-(4-(pyrimidin-5-yl)phenyl)-3,4-dihydro-2H-pyrano[3,2-b]pyridin-4-yl)benzamide]: the IC50 was determined as 1410 nM. Turning to `Cc1c(C(=O)O)cc(C(=O)N[C@]2(c3ccc(OC(F)(F)F)c(F)c3)CCOc3cccnc32)n1C` [Example 303], the IC50 is 28 nM. Then `O=C(N[C@]1(c2ccc(OC(F)(F)F)cc2)CCOc2cccnc21)c1cc[nH]n1` [Example 211, (S)-N-(4-(4-(trifluoromethoxy)phenyl)-3,4-dihydro-2H-pyrano[3,2-b]pyridin-4-yl)-1H-pyrazole-3-carboxamide formate], with 336 nM.

As for `O=C(N[C@]1(c2ccc(-c3cnc(Cl)nc3)cc2)CCOc2cccnc21)c1ccc(F)cc1` [Example 139, (S)-N-(4-(4-(2-chloropyrirnidin-5-yl)phenyl)-3,4-dihydro-2H-pyrano[3,2-b]pyridin-4-yl)-4-fluorobenzamide], the IC50 turned out to be 122 nM. Next, `O=C(Nc1cc(F)c(O)c(F)c1)N[C@]1(c2ccc(OC(F)(F)F)c(F)c2)CCOc2cccnc21` [Example 97, (S)-1-(3,5-difluoro-4-hydroxyphenyl)-3-(4-(3-fluoro-4-(trifluoromethoxy)phenyl)-3,4-dihydro-2H-pyrano[3,2-b]pyridin-4-yl)urea]: 159 nM. As to `CC1(C)COC(c2ccc(C(=O)N[C@]3(c4ccc(OC(F)(F)F)c(F)c4)CCOc4cccnc43)cc2)=N1` [Example 168, (S)-4-(4,4-dimethyl-4,5-dihydrooxazol-2-yl)-N-(4-(3-fluoro-4-(trifluoromethoxy)phenyl)-3,4-dihydro-2H-pyrano[3,2-b]pyridin-4-yl)benzamide], the IC50 is 146 nM. Next, `O=C(N[C@]1(c2ccc(C(F)(F)F)cc2)CCOc2cccnc21)c1ccc(=O)[nH]c1` [Example 60, (S)-6-oxo-N-(4-(4-(trifluoromethyl)phenyl)-3,4-dihydro-2H-pyrano[3,2-b]pyridin-4-yl)-1,6-dihydropyridine-3-carboxamide]: 125 nM.
